Here are results for eleven compounds from patent US20080176862A1, “New Compounds 617” (ASTRAZENECA AB, priority 2006, published 2008).

The target of this assay is T1, human β-Secretase (soluble part, AA1-AA460; sBACE-Fc) (Homo sapiens, UniProt P56817).
T1 construct: The soluble part of the human β-Secretase (AA1-AA460) was cloned into the ASP2-Fc10-1-IRES-GFP-neoK mammalian expression vector; made in house
T1 sequence (P56817 22-460): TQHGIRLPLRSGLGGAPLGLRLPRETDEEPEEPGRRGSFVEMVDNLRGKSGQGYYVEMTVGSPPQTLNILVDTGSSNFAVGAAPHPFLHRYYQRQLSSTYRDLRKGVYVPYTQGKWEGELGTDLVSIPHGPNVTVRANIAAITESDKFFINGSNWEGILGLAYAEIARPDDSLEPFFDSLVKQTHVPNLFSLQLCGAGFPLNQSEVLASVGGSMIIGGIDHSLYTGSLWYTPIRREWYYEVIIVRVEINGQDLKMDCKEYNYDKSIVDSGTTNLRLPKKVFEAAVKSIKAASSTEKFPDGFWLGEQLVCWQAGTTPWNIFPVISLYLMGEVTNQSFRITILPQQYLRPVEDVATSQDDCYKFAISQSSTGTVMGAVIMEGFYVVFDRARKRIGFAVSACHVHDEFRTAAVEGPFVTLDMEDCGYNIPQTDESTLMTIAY
As to the kind of experiment: TR-FRET assay. Type of assay: biochemical. The note with it: substrate (Europium)CEVNLDAEFK(Qsy7) 100 nM, pH 4.5, 15 min at RT; read-out: IC50 (nM) in TR-FRET assay. Here is the method:
The enzyme used in the IGEN Cleavage-, Fluorescent-, TR-FRET- and BiaCore assays is described as follows:
The soluble part of the human β-Secretase (AA1-AA460) was cloned into the ASP2-Fc10-1-IRES-GFP-neoK mammalian expression vector. The gene was fused to the Fc domain of IgG1 (affinity tag) and stably cloned into HEK 293 cells. Purified sBACE-Fc is stored in Tris buffer, pH 9.2 and has a purity of 95%.
Enzyme was diluted to 6 μg/mL and the substrate (Europium)[…](Qsy7) to 200 nM in reaction buffer (NaAcetate, chaps, triton x-100, EDTA pH 4.5). Compounds were diluted to the desired concentration in dimethyl sulfoxide (final dimethyl sulfoxide concentration in assay is 5%). […] Enzyme (9 μL) and 1 μL of compound in dimethyl sulfoxide was added to the plate, mixed and pre-incubated for 10 min. Substrate (10 μL) was added and the reaction proceeded in the dark for 15 min at RT. The reaction was stopped with the addition of 7 μL NaAcetate, pH 9. The fluorescence of the product was measured on a Victor II plate reader with an excitation wavelength of 340 nm and an emission wavelength of 615 nm. […] The dimethyl sulfoxide control defined the 100% activity level and 0% activity was defined by exclusion of the enzyme (using reaction buffer instead).
On the technique in general: Time-resolved FRET reads energy transfer from a long-lived donor to a nearby acceptor.
The term IC50 denotes the concentration needed to halve the response being measured. For `CN1C(=O)C(c2ccc(OS(=O)(=O)c3ccc4c(c3)oc(=O)n4C)cc2)(c2ccc(F)c(-c3cccnc3)c2)N=C1N` (centres unmarked) [Example 284, 4-[2-Amino-4-(4-fluoro-3-pyridin-3-ylphenyl)-1-methyl-5-oxo-4,5-dihydro-1H-imidazol-4-yl]phenyl 3-methyl-2-oxo-2,3-dihydro-1,3-benzoxazole-6-sulfonate 0.5acetate], the IC50 is 60 nM.

As for `CN1C(=O)C(c2cccc(OS(C)(=O)=O)c2)(c2ccc(F)c(-c3cc(Cl)cnc3F)c2)N=C1N` (centres unmarked) [Example 86, 3-{2-Amino-4-[3-(5-chloro-2-fluoropyridin-3-yl)-4-fluorophenyl]-1-methyl-5-oxo-4,5-dihydro-1H-imidazol-4-yl}phenyl methanesulfonate], the 50% inhibitory concentration (IC50) is 292 nM. In the case of `CC(C)S(=O)(=O)Oc1cccc(C2(c3ccc(F)c(-c4cccc(Cl)c4)c3)N=C(N)N(C)C2=O)c1` (centres unmarked) [Example 106, 3-[2-Amino-4-(3′-chloro-6-fluorobiphenyl-3-yl)-1-methyl-5-oxo-4,5-dihydro-1H-imidazol-4-yl]phenyl propane-2-sulfonate], the IC50 was found to be 363 nM. To `COc1ccc(OC(F)(F)F)c(-c2cc(C3(c4ccc(OS(C)(=O)=O)cc4)N=C(N)N(C)C3=O)ccc2F)c1` (centres unmarked) [Example 168, 4-{2-Amino-4-[6-fluoro-5′-methoxy-2′-(trifluoromethoxy)biphenyl-3-yl]-1-methyl-5-oxo-4,5-dihydro-1H-imidazol-4-yl}phenyl methanesulfonate] belongs 349 nM; to `CN1C(=O)C(c2cccc(OS(=O)(=O)c3ccc4c(c3)CCC4)c2)(c2ccc(F)c(Br)c2)N=C1N` (centres unmarked) [Example 228, 3-[2-Amino-4-(3-bromo-4-fluorophenyl)-1-methyl-5-oxo-4,5-dihydro-1H-imidazol-4-yl]phenyl indane-5-sulfonate], 788 nM; to `COc1ccc(C2(c3cccc(-c4cc(Cl)cc(OS(C)(=O)=O)c4)c3)N=C(N)N(C)C2=O)cc1C(F)(F)F` (centres unmarked) [Example 61, 3′-{2-Amino-4-[4-methoxy-3-(trifluoromethyl)phenyl]-1-methyl-5-oxo-4,5-dihydro-1H-imidazol-4-yl}-5-chlorobiphenyl-3-ylmethanesulfonate], 37 nM. For `COc1ccc(C2(c3cccc(-c4cc(OC)cc(OS(C)(=O)=O)c4)c3)N=C(N)N(C)C2=O)cc1` (centres unmarked) [Example 57, 3′-[2-Amino-4-(4-methoxyphenyl)-1-methyl-5-oxo-4,5-dihydro-1H-imidazol-4-yl]-5-methoxybiphenyl-3-yl methanesulfonate], the IC50 turned out to be 34 nM. In the case of `CN1C(=O)C(c2ccc(OS(C)(=O)=O)cc2)(c2cncc(-c3cccnc3F)c2)N=C1N` (centres unmarked) [Example 22, 4-[2-amino-4-(2′-fluoro-3,3′-bipyridin-5-yl)-1-methyl-5-oxo-4,5-dihydro-1H-imidazol-4-yl]phenyl methanesulfonate 0.5 acetate] it was 1650 nM; in that of `CCCS(=O)(=O)Oc1cccc(C2(c3ccc(F)c(-c4cc(Cl)cc(Cl)c4)c3)N=C(N)N(C)C2=O)c1` (centres unmarked) [Example 100, 3-[2-Amino-4-(3′,5′-dichloro-6-fluorobiphenyl-3-yl)-1-methyl-5-oxo-4,5-dihydro-1H-imidazol-4-yl]phenyl propane-1-sulfonate], 395 nM. To `CN1C(=O)C(c2cccc(OS(C)(=O)=O)c2)(c2ccc(F)c(-c3cc(Cl)cc(Cl)c3)c2)N=C1N` (centres unmarked) [Example 89, 3-[2-Amino-4-(3′,5′-dichloro-6-fluorobiphenyl-3-yl)-1-methyl-5-oxo-4,5-dihydro-1H-imidazol-4-yl]phenyl methanesulfonate] belongs 207 nM. In the case of `CC(C)S(=O)(=O)Oc1cccc(C2(c3ccc(F)c(-c4cccnc4F)c3)N=C(N)N(C)C2=O)c1` (centres unmarked) [Example 104, 3-{2-Amino-4-[4-fluoro-3-(2-fluoropyridin-3-yl)phenyl]-1-methyl-5-oxo-4,5-dihydro-1H-imidazol-4-yl}phenyl propane-2-sulfonate] it was 186 nM.
